# Measured values as given in patent US4897403A, “Antimalarial compositions and methods” (The United States of America as represented by the …, priority 1986, dated 1990).
# Where two headings read alike, the source gives them in different places.
# Legend:
# [1] = test system: chloroquine-sensitive West African clone (D-6); experiment: In vitro susceptibility (radiolabelled hypoxanthine incorporation, semi-automated microdilution), Example 1, clone D-6; type: cell-based, P. falciparum; settings: Plasmodium falciparum
# Protocol: (§1) Throughout the examples, incorporation of radiolabelled hypoxanthine was used to measure a synchronous growth of the malarial parasites and inhibition of incorporation was the measured parameter of the parasites' rsponse to the drugs. Semi-automated microdilution techniques as disclosed by R. E. Desjardins et al, Antimicrob.
# (§2) First, the antimalarial properties of verapamil (a calcium channel blocker "reversing compound") in vitro were studied. […] The drug combinations were dosed in fixed ratios of their 50% inhibitory concentrations.
# [2] = test system: chloroquine-resistant clone from Indochina (W-2); experiment: microbe, parasite or virus in culture; settings: Plasmodium falciparum
# Protocol: as §1, §2
# (§3) The IC50 's of each drug in combination set forth in Table 1 were then calculated as a fraction of the control IC50 and plotted as a fraction of one unit of IC50 in FIG. 1. […] The line connecting each unit of IC50 for each clone represents the additivity of drug effects.
# [3] = test system: chloroquine-resistant clone from Brazil (IEC 306); experiment: microbe, parasite or virus in culture; type: cell-based, P. falciparum; settings: Plasmodium falciparum
# Protocol: as §1, §2, §3
# [4] = test system: chloroquine-sensitive West African clone (D-6); experiment: Effect of verapamil on chloroquine sensitivity, Example 2, clone D-6; type: cell-based, P. falciparum; settings: Plasmodium falciparum, clone D-6, CQ sensitive, IC50 + 1SD
# Excerpt: as §1
# [5] = test system: chloroquine-resistant clone from Indochina (W-2); experiment: microbe, parasite or virus in culture; type: cell-based, P. falciparum; settings: for IC50: Plasmodium falciparum
# Excerpt: as §1
# [6] = test system: Isolates of P. falciparum from Thailand; settings: cited from earlier work
# malarial parasites = experiment: Antimalarial properties of verapamil in vitro; type: cell-based, P. falciparum
# Protocol: as §1, §2
# [7] = test system: malarial parasite growth or hypoxanthine uptake; experiment: Effect of verapamil alone on malarial parasite growth or hypoxanthine uptake in vitro; type: cell-based, P. falciparum; settings: 1×10^-6 M and 2×10^-6 M
# Excerpt: as §1
compound,measurement,setting,value
CCN(CC)CCCC(C)Nc1ccnc2cc(Cl)ccc12 (stereo not shown) [chloroquine],IC50,"[1]; read-out: IC50 of chloroquine in drug combination, CQ 25 nM/VER 75 μM fixed ratio, clone D-6",4.4 nM
same,IC50,"[1]; read-out: IC50 of chloroquine in drug combination, CQ 50 nM/VER 50 μM fixed ratio, clone D-6",8 nM
same,IC50,"[1]; read-out: IC50 of chloroquine in drug combination, CQ 75 nM/VER 25 μM fixed ratio, clone D-6",11.4 nM
same,IC50,"[1]; read-out: fifty percent inhibitory concentration (IC50), single drug chloroquine, chloroquine alone, clone D-6",14.1 nM
same,IC50,"[2]; read-out: IC50 of chloroquine in drug combination, CQ 25 nM/VER 75 μM fixed ratio, clone W-2",1.5 nM
same,IC50,"[2]; read-out: IC50 of chloroquine in drug combination, CQ 50 nM/VER 50 μM fixed ratio, clone W-2",1.3 nM
same,IC50,"[2]; read-out: IC50 of chloroquine in drug combination, CQ 75 nM/VER 25 μM fixed ratio, clone W-2",3.8 nM
same,IC50,"[3]; read-out: IC50 of chloroquine in drug combination, CQ 25 nM/VER 75 μM fixed ratio, clone IEC-306",2.8 nM
same,IC50,"[3]; read-out: IC50 of chloroquine in drug combination, CQ 50 nM/VER 50 μM fixed ratio, clone IEC-306",6.3 nM
same,IC50,"[3]; read-out: IC50 of chloroquine in drug combination, CQ 75 nM/VER 25 μM fixed ratio, clone IEC-306",11.7 nM
same,IC50,"[3]; read-out: fifty percent inhibitory concentration (IC50), single drug chloroquine, chloroquine alone, clone IEC-306",52.3 nM
same,IC50,"[4]; read-out: IC50 of chloroquine + 1 × 10^-6 M VER, with 1 × 10^-6 M verapamil",7.8 ± 0.6 nM
same,IC50,"[4]; read-out: IC50 of chloroquine + 2 × 10^-6 M VER, with 2 × 10^-6 M verapamil",8.8 ± 0.3 nM
same,IC50,[5]; read-out: IC50 of chloroquine + 1 × 10^-6 M VER,8.4 ± 0.4 nM
same,IC50,[5]; read-out: IC50 of chloroquine + 2 × 10^-6 M VER,5.6 ± 0.3 nM
same,sensitivity of chloroquine-resistant clone to chloroquine in presence of verapamil (FIGS. 2 and 3),"[5]; constant concentration of verapamil, compared with chloroquine-sensitive West African clone",as sensitive to the chloroquine treatment as the chloroquine-sensitive West African clone
same,resistance of isolates in vitro,[6],resistant
OC(c1cc(C(F)(F)F)nc2c(C(F)(F)F)cccc12)C1CCCCN1 (stereo not shown) [mefloquine],resistance of isolates in vitro,[6],resistant
C=C[C@H]1C[N@@]2CC[C@H]1C[C@H]2[C@H](O)c1ccnc2ccc(OC)cc12 [quinine],resistance of isolates in vitro,[6],resistant
COc1ccc(CCN(C)CCCC(C#N)(c2ccc(OC)c(OC)c2)C(C)C)cc1OC (stereo not shown) [verapamil],IC50,"malarial parasites; Plasmodium falciparum, read-out: inhibitory concentration (IC50)",6 to 8 µg/mL
same,fold less potent than chloroquine or mefloquine,"malarial parasites; verapamil vs chloroquine or mefloquine, in vitro","1,000 fold"
same,effect on malarial parasite growth or hypoxanthine uptake in vitro,[7],no significant effects
